# Laboratory results taken from publication PMC10056636, “3-Amino-Substituted Analogues of Fusidic Acid as Membrane-Active Antibacterial Compounds” (Membranes, 2023).
# Like-named read-outs stand apart in the source and are kept apart here.
# Legend:
# [1] = tested on: Staphylococcus aureus (ATCC 43300) (MRSA); assay: Antibacterial whole-cell growth inhibition (MIC, CO-ADD); format: cell-based; conditions: for MIC: S. aureus (MRSA) ATCC 43300, inhibition ≥80%, two replicates (n = 2); for primary screening: antimicrobial activity: S. aureus (MRSA), primary screen at 32 μg/mL
# Experimental: (§1) Antibacterial screening was carried out by the serial dilution method. All bacteria were cultured in the cation-adjusted Mueller Hinton broth (CAMHB) at 37 °C overnight. A sample of each culture was then diluted 40-fold in fresh broth and incubated at 37 °C for 1.5–3 h. The resultant mid-log phase cultures were diluted (CFU/mL measured by OD600) and then added into each well containing a test compound, giving a cell density of 5 × 10^5 CFU/mL and a total volume of 50 µL. All the plates were covered and incubated at 37 °C for 18 h without shaking.
# (§2) Inhibition of bacterial growth was determined by measuring the absorbance at 600 nm (OD600) with a Tecan M1000 Pro monochromator plate reader. […]
# [2] = in vitro; format: cell-based, human; conditions: human, CC50
# Experimental: (§3) HEK293 cells were counted manually in a Neubauer hemocytometer and then plated in 384-well plates containing the test compounds to give a density of 5000 cells per well in a final volume of 50 µL. DMEM supplemented with 10% FBS was used as the growth medium, and the cells were incubated together with the compounds for 20 h at 37 °C in 5% CO2.
# (§4) The cytotoxicity (or cell viability) was measured by fluorescence, ex: 560/10 nm, em: 590/10 nm (F560/590), after addition of 5 µL of 25 µg/mL resazurin (2.3 µg/mL final concentration) and after incubation for further 3 h at 37 °C in 5% CO2. The fluorescence intensity was measured using a Tecan M1000 Pro monochromator plate reader with automatic gain control. The CC50 (50% cytotoxicity concentration) values were calculated by curve fitting of inhibition vs. log(concentration) using a sigmoidal dose–response function, with variable fitting values for bottom, top, and slope. In addition, the maximal percentage of cytotoxicity is reported as DMax, indicating any compounds with partial cytotoxicity. The curve fitting was implemented using Pipeline Pilot’s dose–response component. The results were similar to those obtained by other curve-fitting tools, such as GraphPad’s Prism and IDBS’s XlFit. Any value with > indicated samples with no activity (low DMax value) or samples with CC50 values above the maximum tested concentration (higher DMax value).
# (§5) In addition, samples were flagged as partially cytotoxic if DMax ≥ 50%, even for CC50 > the maximum tested concentration.
# (§6) Tamoxifen served as a positive cytotoxicity standard. Melittin was used as a positive hemolytic standard.
# [3] = tested on: human embryonic kidney cell line HEK293 (ATCC CRL-1573); assay: in vitro; format: cell-based; conditions: human, 20 h
# Experimental: as §3, §4, §5, §6
# [4] = Hemolysis assay; format: cell-based, human; conditions: human, Dmax (maximal percentage of hemolysis)
# Experimental: (§7) Human whole blood was washed three times with 3 volumes of 0.9% NaCl and then resuspended in the same medium to a concentration of 0.5 × 10^8 cells/mL, as determined by manual cell count in a Neubauer hemocytometer. The washed cells were then added to 384-well plates containing the test compounds to a final volume of 50 µL. After shaking on a plate shaker for 10 min, the plates were incubated for 1 h at 37 °C. After incubation, the plates were centrifuged at 1000× g for 10 min to pellet the cells and debris; 25 µL of the supernatant was then transferred to a polystyrene 384-well assay plate.
# (§8) Hemolysis was monitored by measuring the supernatant absorbance at […] (OD405). The absorbance was measured using a Tecan M1000 Pro monochromator plate reader. HC10 and HC50 (10% and 50% hemolysis concentrations, respectively) were calculated by curve fitting of inhibition vs. log(concentration) using a sigmoidal dose–response function with variable fitting values for top, bottom, and slope. In addition, the maximal percentage of hemolysis is reported as DMax, indicating any compounds with partial hemolysis. The curve fitting was implemented using Pipeline Pilot’s dose–response component. […] Any value with > indicated sample with no activity (low DMax value) or samples with HC10 values above the maximum tested concentration (higher DMax value).
# (§9) In addition, samples were flagged as partially hemolytic if DMax ≥ 50%, even for HC10 > the maximum tested concentration. […]
# [5] = tested on: human red blood cells; assay: Hemolysis assay; format: cell-based; conditions: human, 1 h
# Experimental: as §7, §8, §9
# [6] = Ion permeability and rupture of planar lipid bilayers
# Experimental: (§10) Synthetic 1,2-diphytanoyl-sn-glycero-3-phosphocholine (DPhPC) and 1,2-diphytanoyl-sn-glycero-3-phospho-(1′-rac-glycerol) (DPhPG) were purchased from Avanti® Polar Lipids (Avanti Polar Lipids, Inc., Alabaster, AL, USA). A KCl solution (0.1 M) was buffered with 5 mM HEPES, pH 7.4. Bilayer lipid membranes were prepared from DPhPC or DPhPG using a monolayer-opposition technique on a 50 µm-diameter aperture in a 10 µm-thick Teflon film separating the cis- and trans-compartments of the Teflon chamber. Experiments were performed in chambers containing 0.1 M KCl, 5 mM Hepes-KOH, pH 7.4.
# (§11) The test compounds (4, 20, 22) were added to the cis-chamber as 10 mg/mL solutions in ethanol (to mimic the physiologically relevant conditions) up to the final concentrations and the effects of the compounds on the ion permeability of the model lipid membranes were studied. Ag/AgCl electrodes with 1.5% agarose/2 M KCl bridges were used to apply the transmembrane voltage (V) and measure the transmembrane current (I). ‘Positive voltage’ refers to the case in which the cis-side compartment is positive with respect to the trans-side. All experiments were performed at room temperature.
# (§12) The current was measured using an Axopatch 200B amplifier (Molecular Devices, LLC, Orlean, CA, USA) in voltage clamp mode. Data were digitized using a Digidata 1440A and analyzed using pClamp 10.0 (Molecular Devices, LLC, Orlean, CA, USA) and Origin 8.0 (OriginLab Corporation, Northampton, MA, USA). The data were acquired at a sampling frequency of 5 kHz using low-pass filtering at 200 Hz.
# (§13) The threshold concentrations (Cbr) of the derivatives required to rupture the bilayers composed of DPhPC or DPhPG at a transmembrane voltage of 100 mV were determined. Cbr-values were averaged from 3 to 4 bilayers and presented as mean ± standard error (p ≤ 0.05).
# [7] = Ion permeability, pore formation and rupture of planar lipid bilayers
# Experimental: as §10, §11, §12, §13
# Pore-forming ability of compound 22 was studied by applying transmembrane voltages in a range of 50–200 mV with 50 mV step and by increasing the derivative concentration in the bilayer bathing solution from 10 to 150 µg/mL.
# [8] = Measurement of the membrane boundary potential (K+-nonactin conductance); conditions: DPhPG, 0.1 M KCl, pH 7.4, 50 mV
# Experimental: Measurement of the membrane boundary potential. Virtually solvent-free planar lipid bilayers were made of DPhPC or DPhPG as described above. After the membrane was completely formed and stabilized and its stability was assessed by applying voltages in a range from −200 to 200 mV with a 50 mV step for 5–10 min, stock solutions of nonactin A (7 μg/mL in ethanol) were added to the bathing solution (0.1 M KCl, 5 mM HEPES, pH 7.4) in both chamber compartments to obtain a final concentration ranging from 0.1 to 1 μM.
# Test derivatives (4, 20, 22) as 10 mg/mL solutions in ethanol were added to both compartments in a concentration range from 5 µg/mL to Cbr in increments of 25 µg/mL.
# The conductance of the bilayers was determined by measuring the membrane conductance (G) at a constant transmembrane voltage of 50 mV. In the subsequent calculations, the membrane conductance was assumed to be related to the membrane boundary potential (φb), the potential drop between the aqueous solution and the membrane hydrophobic core, by the Boltzmann distribution (1) Gm/Gm0=exp(eΔφb/kT) where Gm and Gm^0 are the steady-state membrane conductances induced by K^+-nonactin in the presence and absence of test compounds, respectively; e, k, and T have their usual meanings.
# The changes in the membrane boundary potential for the defined experimental conditions were averaged from 4 bilayers and presented as mean ± standard deviation (p ≤ 0.05).
# [9] = tested on: Acinetobacter baumannii (ATCC 19606); assay: Antibacterial whole-cell growth inhibition (MIC, CO-ADD); format: cell-based; conditions: A. baumannii, two replicates per cell
# Experimental: as §1, §2
# [10] = tested on: Escherichia coli (ATCC 25922); assay: as above; format: cell-based; conditions: E. coli, two replicates per cell
# Experimental: as §1, §2
# [11] = tested on: Pseudomonas aeruginosa (ATCC 27853); assay: as above; format: cell-based; conditions: P. aeruginosa, two replicates per cell
# Experimental: as §1, §2
# [12] = tested on: Candida albicans (ATCC 90028); assay: Antifungal growth inhibition (MIC, CO-ADD); format: cell-based; conditions: C. albicans, inhibition ≥80%, two replicates per cell
# [13] = tested on: Cryptococcus neoformans (ATCC 208821); assay: Antifungal growth inhibition (MIC, CO-ADD); conditions: inhibition ≥70%, two replicates per cell
# Experimental: Antimicrobial, cytotoxicity, and hemolytic activity screening of the synthesized derivatives was carried out in the CO-ADD (The Community for Antimicrobial Drug Discovery) (http://www.co-add.org, accessed on 24 November 2020) and included analysis for antibacterial properties, cytotoxicity, and hemolytic activity.
# The hit confirmation test included five bacteria, Escherichia coli (ATCC 25922), Klebsiella pneumoniae (ATCC 700603), Acinetobacter baumannii (ATCC 19606), Pseudomonas aeruginosa (ATCC 27853), and Staphylococcus aureus (ATCC 43300), and two fungi, Candida albicans (ATCC 90028) and Cryptococcus neoformans (ATCC 208821). […] The compounds were also screened for hemolysis of human red blood cells (human whole blood, strain ARCBS 5400 00150).
# Samples were prepared in DMSO and water to a final testing concentration of 32 µg/mL or 20 µM (unless otherwise indicated in the data sheet) and serially diluted twofold up to 8 times. Each sample concentration was prepared in 384-well plates: non-binding surface plate (NBS; Corning 3640) for each bacterial/fungal strain, tissue-culture treated (TC-treated; Corning 3712/3764) black for mammalian cell types and polypropylene 384-well plates (PP; Corning 3657) for hemolysis assays. The final DMSO concentration was maintained to a maximum of 0.5%. All sample preparation procedures were performed using liquid-handling robots. All screening was performed as two replica (n = 2), with both replicas on different assay plates, but from single plating and performed in a single screening experiment (microbial incubation). In addition, two values are used as quality controls for individual plates: Z′-Factor [1 − (3* (sd(NegCtrl) + sd(PosCtrl))/(average(PosCtrl)-average(NegCtrl)))] and standard antibiotic controls at different concentrations (>MIC and <MIC).
# Fungi strains were cultured for 3 days on yeast extract-peptone dextrose (YPD) agar at 30 °C. A yeast suspension of 1 × 10^6 to 5 × 10^6 CFU/mL (as determined by OD530) was prepared from five colonies. The suspension was subsequently diluted and added to each well containing a test compound, giving a final cell density of fungi suspension of 2.5 × 10^3 CFU/mL and a total volume of 50 µL. All plates were covered and incubated at 35 °C for 36 h without shaking.
# The absorbance was measured using a Biotek Multiflo Synergy HTX plate reader. In both cases, the percentage of growth inhibition was calculated for each well, using the negative control (media only) and positive control (fungi without inhibitors) in the same plate. […] In addition, the maximal percentage of growth inhibition is reported as DMax, indicating any compounds with marginal activity.
# Fluconazole was used as a positive fungal inhibitor standard for C. albicans and C. neoformans. […] The quality control (QC) of the assays was performed using Z′-factors calculated from the negative (media only) and positive controls (bacterial, fungal, or cell culture without inhibitor) and the standards.
# [14] = Staphylococcus aureus, read-out: MIC
Structure (SMILES),MIC [1],primary screening: antimicrobial activity [1],"MIC [1, 14]",CC50 at 20 h [2],CC50 [3],hemolysis at 1 h [4],Dmax (maximal percentage of hemolysis) [5],HC50 [5],melting point,other results
"CC(=O)O[C@H]1C[C@@]2(C)[C@H](C[C@@H](O)[C@@H]3[C@@]4(C)CC[C@H](NC(=O)c5cnccn5)[C@@H](C)C4CC[C@@]32C)/C1=C(\CCC=C(C)C)C(=O)O (stereo partly drawn) [Compound 3, (2Z)-2-{(3β,4α,8α,11α,14β,16β)-16-(acetyloxy)-11-hydroxy-4,8,10,14-tetramethyl-3-[(pyrazin-2-ylcarbonyl)amino]gonan-17-ylidene}-6-methylhept-5-enoic acid]",≤0.25 ≤0.25 µg/mL,showed antimicrobial activity,0.25 µg/mL,> 32 µg/mL,>32 >32 µg/mL,2.2%,1.4%,>32 >32 µg/mL,162 to 164 °C,
"COC(=O)/C(CCC=C(C)C)=C1\[C@@H](OC(C)=O)C[C@@]2(C)[C@@H]1C[C@@H](O)[C@@H]1[C@@]3(C)CC[C@H](NC(=O)c4cnccn4)[C@@H](C)C3CC[C@@]12C (stereo partly drawn) [Compound 4, Methyl (2Z)-2-{(3β,4α,8α,11α,14β,16β)-16-(acetyloxy)-11-hydroxy-4,8,10,14-tetramethyl-3-[(pyrazin-2-ylcarbonyl)amino]gonan-17-ylidene}-6-methylhept-5-enoate]",≤0.25 ≤0.25 µg/mL,showed antimicrobial activity,0.25 µg/mL,24 µg/mL,> 32 µg/mL,3.9%,,>32 >32 µg/mL,151 to 153 °C,"concentration up to which addition did not increase the ion permeability of the lipid bilayers ([6]; DPhPC uncharged membranes): ≤ 225 µg/mL; Cbr (threshold concentration required to rupture the bilayer) ([6]; DPhPC, 0.1 M KCl, pH 7.4, 100 mV): 225 ± 15 µg/mL; concentration up to which ionic permeability of lipid bilayers is not affected ([7]; DPhPG): up to 170 μg/mL; formation of ion-permeable pores ([7]; DPhPG bilayers): not able to form transient ion-permeable pores; Cbr (threshold concentration required to rupture the bilayer) ([7]; DPhPG, 0.1 M KCl, pH 7.4, 100 mV): 163 ± 11 µg/mL; −Δφb(max) (maximum decrease in the membrane boundary potential) [8]: 21 ± 5 mV"
CC(=O)O[C@H]1C[C@@]2(C)[C@@H](C[C@@H](O)[C@H]3[C@@]4(C)CC[C@@H](O)[C@@H](C)[C@@H]4CC[C@@]32C)/C1=C(\CCC=C(C)C)C(=O)O [Fusidic acid],≤0.25 ≤0.25 µg/mL,,≤ 0.25 µg/mL,> 32 µg/mL,>32 >32 µg/mL,10%,9.7%,>32 >32 µg/mL,,"MIC [9]: >32 >32 µg/mL; MIC ([9]; Acinetobacter baumannii, ATCC19606, read-out: MIC): > 32 µg/mL; MIC [10]: >32 >32 µg/mL; MIC ([10]; Escherichia coli, ATCC25922, read-out: MIC): > 32 µg/mL; MIC [11]: >32 >32 µg/mL; MIC ([11]; Pseudomonas aeruginosa, ATCC27853, read-out: MIC): > 32 µg/mL; MIC [12]: >32 >32 µg/mL; MIC ([12]; Candida albicans, ATCC90028, read-out: MIC): > 32 µg/mL; MIC ([13]; C. neoformans): >32 >32 µg/mL; MIC ([13]; Cryptococcus neoformans, ATCC208821, C. neoformans): > 32 µg/mL"
